Results taken from US5177082A, “Huperzines and analogs” (priority 1990, dated 1993).
Read-outs that look alike come from different tables or passages of the source.

What was measured:
in vivo = conditions: rat, iv; for k el / Vd / half-life: rat blood
[1] = Plasma protein binding by equilibrium dialysis; assay type: in vitro ADME; conditions: mouse, plasma of normal mice
Description: Using equilibrium dialysis, it could be shown that the protein binding of ^3 H-Huperzine A in the plasma of normal mice was 17.2±4.1%.

[2] = iv 375 μCi/kg, rat blood
[3] = Tissue distribution of 3H-Huperzine A radioactivity, iv; assay type: in vivo, rat
Description: After giving 250 μCi/kg by iv injections of ^3 H-Huperzine A to the rats, they were sacrificed at different times by bloodletting and the radioactivity contents of the organs were measured.

[4] = Excretion of 3H-Huperzine A after a single dose; assay type: in vivo
true cholinesterase = true cholinesterase (Rattus norvegicus, UniProt P37136)
[5] = seven days after a single dose, 10080 min

true cholinesterase, sequence (P37136-2 with tags, fused parts or gaps limits assumed): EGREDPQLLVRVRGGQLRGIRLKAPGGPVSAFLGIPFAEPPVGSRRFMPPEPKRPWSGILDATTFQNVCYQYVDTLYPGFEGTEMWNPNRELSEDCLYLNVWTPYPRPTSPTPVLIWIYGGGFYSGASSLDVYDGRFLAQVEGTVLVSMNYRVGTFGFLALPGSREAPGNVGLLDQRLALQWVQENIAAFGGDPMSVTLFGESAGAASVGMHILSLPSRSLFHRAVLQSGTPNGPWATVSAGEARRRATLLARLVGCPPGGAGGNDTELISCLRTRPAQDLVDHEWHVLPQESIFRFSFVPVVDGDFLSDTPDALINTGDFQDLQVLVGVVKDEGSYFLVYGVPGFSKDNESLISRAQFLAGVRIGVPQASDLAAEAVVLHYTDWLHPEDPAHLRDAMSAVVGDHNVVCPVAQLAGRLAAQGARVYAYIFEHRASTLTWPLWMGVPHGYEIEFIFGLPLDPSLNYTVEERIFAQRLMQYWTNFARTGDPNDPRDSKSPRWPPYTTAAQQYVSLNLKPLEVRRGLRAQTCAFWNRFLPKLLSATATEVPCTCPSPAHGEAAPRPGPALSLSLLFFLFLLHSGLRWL

C/C=C1\[C@H]2C=C(C)C[C@]1(N)c1ccc(=O)[nH]c1C2 [3H-Huperzine A]
clearance (in vivo): 21.2 mL/min/kg | k el (in vivo; K10, iv 375 μCi/kg): 0.00034 s⁻¹ | Vd (in vivo; Vc, iv 375 μCi/kg): 1.04 L/kg | Vd (in vivo; Vd, iv 375 μCi/kg): 3.66 L/kg | k el (in vivo; phase rate constant β, iv 375 μCi/kg): 9.67e-05 s⁻¹ | half-life (in vivo; t1/2α, iv 375 μCi/kg): 0.09 h | half-life (in vivo; t1/2β, iv 375 μCi/kg): 1.99 h | fraction unbound [1]: 0.828 | K12 [2]: 0.0778 | K21 [2]: 0.0366 | phase rate constant α [2]: 0.129 min⁻¹ | radioactivity contents of the organs ([3]; 15 minutes after 250 μCi/kg iv): the kidney and liver had the highest contents, the lungs, spleen and heart had less and the fat and brain had the least | radioactivity in every organ examined ([3]; after twenty-four hours): only a minute quantity of radioactivity | brain distribution / blood-brain barrier ([3]; rat, in vivo): can pass the blood-brain barrier | radioactivity contents of the organs ([3]; twelve hours after 250 μCi/kg iv): the radioactivity in each tissue was close to zero | radioactivity contents of the organs ([3]; two hours after 250 μCi/kg iv): the radioactivity in the other tissues was markedly lower while that in the brain rose slightly | time of peak radioactivity in blood (ig 375 μCi/kg, fasted 14 hours): 45 to 60 min | radioactivity in the blood (seven hours after ig): still relatively high | radioactivity in the blood (twenty minutes after ig): had risen noticeably | eliminated in the urine [4, 5]: 86.1% | eliminated through feces [4, 5]: 5.5% | excreted drug appearing within twenty-four hours (urine) ([4]; within twenty-four hours, 1440 min): 84.9%

C[N+](C)(C)CCO.[Cl-] [choline chloride]
inhibition vs time response (true cholinesterase): The same response was noted
